From US6627246B2, “Process for coating stents and other medical devices using super-critical carbon dioxide” (Ortho-McNeil Pharmaceutical, Inc., priority 2000, dated 2003)

What was measured:
[1] = Determination of RWJ-53308 on the PLGA coated stent (24 h water maceration, UV 261 nm); format: physicochemical; conditions: macerated 24 hours in 2 mL water, UV absorbance 261 nm
Procedure: A coated stent obtained in step b above was placed in a tube with 2 mL. water. The coated stent was allowed to macerate for 24 hours. The aqueous supernatant was drained, filtered and UV absorbance was read at 261 nm. The amount of RWJ-53308 on the stent was calculated by comparing the absorbance value of a standard solution containing 147 μg/mL solution of RWJ-53308. Thus the supernatant obtained by extracting the drug from the PLGA coated stent contained 105 μg of RWJ-53308.

[2] = In-vitro release study of RWJ-53308 from PLGA coated stent; format: physicochemical; conditions: from PLGA coated stent in 2 mL water
Procedure: A coated stent obtained in step b was placed in a tube with 2 mL of water. A 1 mL. aliquot was taken at the 1 hr and at the 17.5 hour time point. This 1 mL. aliquot was replaced with fresh water at each sampling. The sampled aliquot was analyzed by reading UV absorbance at 261 nm. The drug concentration was calculated by comparing the absorbance of a standard solution containing 147 μg/mL aqueous solution of RWJ-53308.
It was observed that approx. 66 ug of RWJ-53308 was released at 1 hour and a cumulative amount of approx. 134 ug was released at 17.5 hours as shown in FIG. 1.

SMILES: O=C(O)C[C@H](NC(=O)[C@@H]1CCCN(C(=O)CCC2CCNCC2)C1)c1cccnc1 [RWJ-53308, 3-Pyridinepropanoic acid, b-[[[(3R)-1-[1-oxo-3-(4-piperidinyl)propyl]-3-piperidinyl]carbonyl]amino]-, (bS)-(9CI)]
- amount of RWJ-53308 in supernatant extracted from PLGA coated stent [1]: 105 µg
- amount of RWJ-53308 released ([2]; at 1 hour): approx. 66 ug
- cumulative amount of RWJ-53308 released ([2]; at 17.5 hours): approx. 134 ug
